In patent publication US20230065740A1, “CYCLIN-DEPENDENT KINASE INHIBITORS” (SPV THERAPEUTICS INC., priority 2018, published 2023):
Values joined by “and” are separate entries in the source; they are usually repeats but may differ in a detail not shown here. Equal values may be shown once. Read-outs that look alike come from different tables or passages of the source.

Columns and labels:
[1] = molecular target: T1, CDK2-CYCLINA (Homo sapiens, UniProt P24941); assay: Microfluidic LabChip kinase inhibition assay, CDK2-CyclinA; type: biochemical; conditions: 50 μM ATP
T1 construct: purchased Millipore

[2] = molecular target: T2, CDK9-CYCLINT1 (Homo sapiens, UniProt P50750); assay: Microfluidic LabChip kinase inhibition assay, CDK9-CyclinT1; type: biochemical
T2 construct: purchased Carna

[3] = molecular target: CDK1/B (Homo sapiens, UniProt P06493); assay: Additional inhibition assay, CDK1/B; type: biochemical
[4] = molecular target: CDK7 CyclinH (Homo sapiens, UniProt P50613); assay: Additional inhibition assay, CDK7 CyclinH; type: biochemical
[5] = molecular target: CDK4-CYCLIND1 (Homo sapiens, UniProt P11802); assay: Microfluidic LabChip kinase inhibition assay, CDK4-CyclinD1; conditions: 200 μM ATP
[6] = molecular target: T3, CDK6-CYCLIND3 (Homo sapiens, UniProt Q00534); assay: Microfluidic LabChip kinase inhibition assay, CDK6-CyclinD3; type: biochemical; conditions: 300 μM ATP
T3 construct: purchased Carna

[7] = CDK4 CyclinD1 IC50 (μM), Table 3a, second value in parentheses on the next line
[8] = CDK4 CyclinD1 IC50 (μM), Table 3b, second value in parentheses on the next line
[9] = Table 3a, 10 μM ATP, read-out: CDK9 CyclinT1 IC50
[10] = Table 2, 2 nM enzyme, read-out: CDK6 IC50
[11] = CDK4 IC50 (μM), Table 2, 1 nM enzyme
[12] = Table 3a, read-out: CDK6 CyclinD3 IC50
[13] = Table 3b, read-out: CDK6 CyclinD3 IC50

T2 sequence (P50750 whole entry): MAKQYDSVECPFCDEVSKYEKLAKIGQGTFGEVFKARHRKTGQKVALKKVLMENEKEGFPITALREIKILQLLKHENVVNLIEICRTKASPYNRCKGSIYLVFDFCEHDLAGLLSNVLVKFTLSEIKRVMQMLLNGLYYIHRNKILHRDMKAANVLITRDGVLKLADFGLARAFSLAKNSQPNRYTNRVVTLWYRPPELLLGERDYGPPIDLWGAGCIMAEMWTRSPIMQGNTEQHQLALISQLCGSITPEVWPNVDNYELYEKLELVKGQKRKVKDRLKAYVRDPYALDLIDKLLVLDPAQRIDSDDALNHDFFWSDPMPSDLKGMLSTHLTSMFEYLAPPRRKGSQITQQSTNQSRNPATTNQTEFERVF
T2 sequence (O60563 whole entry partner): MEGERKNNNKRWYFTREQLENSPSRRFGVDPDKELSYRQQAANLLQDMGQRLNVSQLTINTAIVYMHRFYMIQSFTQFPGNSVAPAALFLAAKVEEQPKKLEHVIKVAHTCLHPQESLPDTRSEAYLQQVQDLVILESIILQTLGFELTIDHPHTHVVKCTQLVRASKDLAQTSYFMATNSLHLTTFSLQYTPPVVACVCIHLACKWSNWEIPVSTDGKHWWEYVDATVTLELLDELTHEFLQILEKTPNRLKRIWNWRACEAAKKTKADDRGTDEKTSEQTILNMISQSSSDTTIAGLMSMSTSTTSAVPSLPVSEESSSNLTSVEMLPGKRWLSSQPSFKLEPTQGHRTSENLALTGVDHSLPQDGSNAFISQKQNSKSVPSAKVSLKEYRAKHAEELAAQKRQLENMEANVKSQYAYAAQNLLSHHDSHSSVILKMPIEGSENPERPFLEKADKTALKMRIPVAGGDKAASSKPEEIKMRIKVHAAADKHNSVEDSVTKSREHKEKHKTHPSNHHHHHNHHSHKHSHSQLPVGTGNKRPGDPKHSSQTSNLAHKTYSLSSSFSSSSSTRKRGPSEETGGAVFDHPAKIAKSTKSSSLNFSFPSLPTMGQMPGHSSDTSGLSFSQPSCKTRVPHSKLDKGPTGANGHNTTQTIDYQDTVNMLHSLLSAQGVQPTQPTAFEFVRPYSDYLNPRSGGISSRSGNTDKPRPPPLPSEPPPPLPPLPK
CDK4-CYCLIND1, sequence (P11802 whole entry): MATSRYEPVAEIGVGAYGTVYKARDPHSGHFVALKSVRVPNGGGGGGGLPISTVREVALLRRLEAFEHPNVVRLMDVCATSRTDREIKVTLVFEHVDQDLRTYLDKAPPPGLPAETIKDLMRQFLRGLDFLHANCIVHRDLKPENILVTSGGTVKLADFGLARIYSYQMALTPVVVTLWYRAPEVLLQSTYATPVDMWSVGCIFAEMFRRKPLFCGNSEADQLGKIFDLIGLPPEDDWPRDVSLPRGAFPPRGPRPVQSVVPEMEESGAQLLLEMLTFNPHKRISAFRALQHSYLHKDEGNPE
CDK4-CYCLIND1, sequence (P24385 whole entry partner): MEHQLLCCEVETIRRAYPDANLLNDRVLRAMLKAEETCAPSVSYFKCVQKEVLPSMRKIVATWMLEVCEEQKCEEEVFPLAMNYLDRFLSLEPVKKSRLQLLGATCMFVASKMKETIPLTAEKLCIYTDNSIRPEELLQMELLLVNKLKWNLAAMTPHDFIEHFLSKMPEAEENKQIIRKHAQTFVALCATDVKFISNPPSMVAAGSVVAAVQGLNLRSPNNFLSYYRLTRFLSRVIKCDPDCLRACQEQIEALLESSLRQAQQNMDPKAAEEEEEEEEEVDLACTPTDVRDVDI
CDK1/B, sequence (P06493 whole entry): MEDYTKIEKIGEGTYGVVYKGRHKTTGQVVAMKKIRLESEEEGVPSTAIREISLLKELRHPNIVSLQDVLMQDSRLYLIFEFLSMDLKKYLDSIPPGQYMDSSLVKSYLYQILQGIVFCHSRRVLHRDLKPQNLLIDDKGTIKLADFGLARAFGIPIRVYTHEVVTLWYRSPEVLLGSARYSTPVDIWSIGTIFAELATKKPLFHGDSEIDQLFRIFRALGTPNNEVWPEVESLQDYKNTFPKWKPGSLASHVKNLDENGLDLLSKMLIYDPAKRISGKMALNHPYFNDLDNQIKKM
CDK1/B, sequence (P14635 whole entry partner): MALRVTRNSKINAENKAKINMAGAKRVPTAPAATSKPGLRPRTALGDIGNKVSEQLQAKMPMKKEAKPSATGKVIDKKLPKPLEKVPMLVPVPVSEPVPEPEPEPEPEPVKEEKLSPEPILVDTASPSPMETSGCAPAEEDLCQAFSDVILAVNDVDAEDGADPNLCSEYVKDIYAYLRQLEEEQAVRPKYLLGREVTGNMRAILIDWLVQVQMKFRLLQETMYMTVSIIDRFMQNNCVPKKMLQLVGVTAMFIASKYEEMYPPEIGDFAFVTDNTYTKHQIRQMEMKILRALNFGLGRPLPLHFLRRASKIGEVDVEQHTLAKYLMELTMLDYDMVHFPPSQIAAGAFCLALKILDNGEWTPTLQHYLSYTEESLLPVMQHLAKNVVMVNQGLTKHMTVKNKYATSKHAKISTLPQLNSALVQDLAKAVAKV
CDK7 CyclinH, sequence (P50613 whole entry): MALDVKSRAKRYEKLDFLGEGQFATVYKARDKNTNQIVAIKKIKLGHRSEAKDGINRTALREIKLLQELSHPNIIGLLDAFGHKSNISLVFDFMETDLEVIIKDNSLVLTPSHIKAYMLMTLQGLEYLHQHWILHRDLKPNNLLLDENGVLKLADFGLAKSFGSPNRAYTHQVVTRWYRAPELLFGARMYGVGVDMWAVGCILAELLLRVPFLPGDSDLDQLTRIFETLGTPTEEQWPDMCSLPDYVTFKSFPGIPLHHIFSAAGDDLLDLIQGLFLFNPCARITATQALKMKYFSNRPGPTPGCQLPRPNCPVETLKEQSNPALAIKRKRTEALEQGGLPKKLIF
CDK7 CyclinH, sequence (P51946 whole entry partner): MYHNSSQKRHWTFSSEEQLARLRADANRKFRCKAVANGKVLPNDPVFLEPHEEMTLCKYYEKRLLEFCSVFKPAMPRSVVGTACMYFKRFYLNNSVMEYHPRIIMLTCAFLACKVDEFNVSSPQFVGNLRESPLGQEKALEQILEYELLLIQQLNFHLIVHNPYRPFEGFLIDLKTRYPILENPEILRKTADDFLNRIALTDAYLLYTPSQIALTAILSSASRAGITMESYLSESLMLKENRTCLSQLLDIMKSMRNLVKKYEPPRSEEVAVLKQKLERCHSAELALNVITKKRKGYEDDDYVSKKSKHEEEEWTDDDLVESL
CDK7 CyclinH, sequence (P51948 whole entry partner): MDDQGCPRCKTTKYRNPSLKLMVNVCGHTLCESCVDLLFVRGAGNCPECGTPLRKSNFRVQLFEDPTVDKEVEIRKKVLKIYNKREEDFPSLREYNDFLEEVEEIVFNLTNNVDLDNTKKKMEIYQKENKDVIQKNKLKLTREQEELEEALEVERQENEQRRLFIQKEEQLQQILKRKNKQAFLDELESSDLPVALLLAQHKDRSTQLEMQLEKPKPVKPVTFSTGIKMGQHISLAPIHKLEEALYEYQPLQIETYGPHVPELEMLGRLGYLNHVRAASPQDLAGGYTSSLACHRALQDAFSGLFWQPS
T3 sequence (Q00534 whole entry): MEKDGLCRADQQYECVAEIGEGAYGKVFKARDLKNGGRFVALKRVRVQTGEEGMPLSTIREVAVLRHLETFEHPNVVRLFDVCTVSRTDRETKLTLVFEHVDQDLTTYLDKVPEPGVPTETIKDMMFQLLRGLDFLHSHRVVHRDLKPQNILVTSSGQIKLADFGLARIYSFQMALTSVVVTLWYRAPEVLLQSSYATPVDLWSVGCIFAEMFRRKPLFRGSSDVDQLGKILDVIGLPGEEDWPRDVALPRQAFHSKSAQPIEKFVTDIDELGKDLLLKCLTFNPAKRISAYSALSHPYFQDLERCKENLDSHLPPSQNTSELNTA
T3 sequence (P30281 whole entry partner): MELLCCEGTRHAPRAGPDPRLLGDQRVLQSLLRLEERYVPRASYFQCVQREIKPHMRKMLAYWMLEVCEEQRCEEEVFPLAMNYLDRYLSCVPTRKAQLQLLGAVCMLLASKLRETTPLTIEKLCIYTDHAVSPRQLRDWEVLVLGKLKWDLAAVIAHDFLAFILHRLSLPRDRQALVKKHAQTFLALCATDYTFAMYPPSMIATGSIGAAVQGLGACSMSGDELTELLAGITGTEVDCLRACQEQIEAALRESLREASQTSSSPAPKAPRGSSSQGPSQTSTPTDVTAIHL

IC50 ([1]; Table 3a) | IC50 ([1]; Table 3b) | IC50 ([3]; Table 3a) | IC50 ([3]; Table 3b) | IC50 ([4]; Table 3a) | IC50 ([4]; Table 3b) | IC50 [5, 7] | IC50 [5, 8] | IC50 [2, 9] | IC50 [6, 10] | IC50 [5, 11] | IC50 [6, 12] | IC50 [6, 13] | Compound | IC50 [2] | IC50 ([6]; CDK6 CyclinD3 IC50 (μM), Table 3a) | IC50 ([6]; CDK6 CyclinD3 IC50 (μM), Table 3b)
– | – | – | – | – | – | – | – | – | 14.7 µM | 7.35 µM | – | – | O=C1NCCC12C(=O)N(C1CCCC1)c1nc(Nc3ccc(N4CCC(N5CCOCC5)CC4)c(F)c3)ncc12 (stereo not drawn) [Compound C106, 7′-cyclopentyl-2′-((3-fluoro-4-(4-morpholinopiperidin-1-yl)phenyl)amino)spiro[pyrrolidine-3,5′-pyrrolo[2,3-d]pyrimidine]-2,6′(7′H)-dione] | – | – | –
– | – | – | – | – | – | – | – | – | 0.335 µM | 0.0866 µM | – | – | O=C1NCCC12Cc1cnc(Nc3ccc(N4CC5(CNC5)C4)c(F)c3)nc1N2C1CCCC1 (stereo not drawn) [Compound C107, 7′-cyclopentyl-2′-((3-fluoro-4-(2,6-diazaspiro[3.3]heptan-2-yl)phenyl)amino)-5′,7′-dihydrospiro[pyrrolidine-3,6′-pyrrolo[2,3-d]pyrimidin]-2-one] | – | – | –
> 10000 nM | > 10000 nM | 6350 nM | 6350 nM | > 10000 nM | > 10000 nM | 0.124 µM | 0.124 µM | 21 nM | – | – | – | – | CN(C)CCOc1ccc(Nc2ncc3c(n2)N(C2CCCC2)C2(CCNC2=O)C3)cc1 (stereo not drawn) [Compound C108, 7′-cyclopentyl-2′-((4-(2-(dimethylamino)ethoxy)phenyl)amino)-5′,7′-dihydrospiro[pyrrolidine-3,6′-pyrrolo[2,3-d]pyrimidin]-2-one] | – | – | –
> 10000 nM | > 10000 nM | 9110 nM | 9110 nM | > 10000 nM | > 10000 nM | 0.116 µM | 0.116 µM | 149 nM | – | – | – | – | CN1CCN(c2ccc(Nc3ncc4c(n3)N(C3CCCC3)C3(CCNC3=O)C4)cc2)CC1 (stereo not drawn) [Compound C115, 7′-cyclopentyl-2′-((4-(4-methylpiperazin-1-yl)phenyl)amino)-5′,7′-dihydrospiro[pyrrolidine-3,6′-pyrrolo[2,3-d]pyrimidin]-2-one] | – | – | –
4900 nM | 4900 nM | 3820 nM | 3820 nM | > 10000 nM | > 10000 nM | 0.0264 µM | 0.0264 µM | 16 nM | – | – | – | – | CC(C)N1CCN(c2ccc(Nc3ncc4c(n3)N(C3CCCC3)C3(CCNC3=O)C4)cc2F)CC1 (stereo not drawn) [Compound C118, 7′-cyclopentyl-2′-((3-fluoro-4-(4-isopropylpiperazin-1-yl)phenyl)amino)-5′,7′-dihydrospiro[pyrrolidine-3,6′-pyrrolo[2,3-d]pyrimidin]-2-one] | – | – | –
> 10000 nM | > 10000 nM | > 10000 nM | > 10000 nM | > 10000 nM | > 10000 nM | 0.374 µM | 0.374 µM | 132 nM | – | – | – | – | Cc1cc(Nc2ncc3c(n2)N(C2CCCC2)C2(CCNC2=O)C3)ccc1N1CCN(C(C)C)CC1 (stereo not drawn) [Compound C121, 7′-cyclopentyl-2′-((4-(4-isopropylpiperazin-1-yl)-3-methylphenyl)amino)-5′,7′-dihydrospiro[pyrrolidine-3,6′-pyrrolo[2,3-d]pyrimidin]-2-one] | – | – | –
> 10000 nM | > 10000 nM | > 10000 nM | > 10000 nM | > 10000 nM | > 10000 nM | 0.955 µM | 0.955 µM | 292 nM | – | – | – | – | COc1cc(Nc2ncc3c(n2)N(C2CCCC2)C2(CCNC2=O)C3)ccc1N1CCN(C)CC1 (stereo not drawn) [Compound C123, 7′-cyclopentyl-2′-((3-methoxy-4-(4-methylpiperazin-1-yl)phenyl)amino)-5′,7′-dihydrospiro[pyrrolidine-3,6′-pyrrolo[2,3-d]pyrimidin]-2-one] | – | – | –
> 10000 nM | > 10000 nM | 8520 nM | 8520 nM | > 10000 nM | > 10000 nM | 0.103 µM | 0.103 µM | 62.8 nM | – | – | – | – | CN1CCN(c2ccc(Nc3ncc4c(n3)N(C3CCCC3)C3(CCNC3=O)C4)cn2)CC1 (stereo not drawn) [Compound C129, 7′-cyclopentyl-2′-((6-(4-methylpiperazin-1-yl)pyridin-3-yl)amino)-5′,7′-dihydrospiro[pyrrolidine-3,6′-pyrrolo[2,3-d]pyrimidin]-2-one] | – | – | –
> 10000 nM | > 10000 nM | > 10000 nM | > 10000 nM | > 10000 nM | > 10000 nM | 0.273 µM | 0.273 µM | 298 nM | – | – | – | – | O=C1NCCC12Cc1cnc(Nc3ccc(N4CCC(N5CCOCC5)CC4)cc3)nc1N2C1CCCC1 (stereo not drawn) [Compound C131, 7′-cyclopentyl-2′-((4-(4-morpholinopiperidin-1-yl)phenyl)amino)-5′,7′-dihydrospiro[pyrrolidine-3,6′-pyrrolo[2,3-d]pyrimidin]-2-one] | – | – | –
2280 nM | 2280 nM | 1780 nM | 1780 nM | 8100 nM | 8100 nM | – | – | – | – | – | – | – | CC(C)N1CCN(c2ccc(Nc3ncc4c(n3)N(C3CCCC3)C3(CC(=O)NC3=O)C4)cc2)CC1 (stereo not drawn) [Compound C134, 7′-cyclopentyl-2′-((4-(4-isopropylpiperazin-1-yl)phenyl)amino)-5′,7′-dihydrospiro[pyrrolidine-3,6′-pyrrolo[2,3-d]pyrimidine]-2,5-dione] | – | – | –
247 nM | 247 nM | – | – | 168 nM | 168 nM | – | – | – | – | – | – | – | CN1CCN(c2ccc(Nc3ncc4c(n3)N(C3CCCC3)C3(CC(=O)NC3=O)C4)cc2F)CC1 (stereo not drawn) [Compound C198, 7′-cyclopentyl-2′-((3-fluoro-4-(4-methylpiperazin-1-yl)phenyl)amino)-5′,7′-dihydrospiro[pyrrolidine-3,6′-pyrrolo[2,3-d]pyrimidine]-2,5-dione] | – | – | –
– | – | – | – | – | – | 0.0332 µM | 0.0332 µM | – | – | – | 0.103 µM | 0.103 µM | CN1CCN(c2ccc(Nc3ncc4c(n3)N(C3CCCCC3)C3(CCNC3=O)C4)cc2)CC1 (stereo not drawn) [Compound C199, 7′-cyclohexyl-2′-((4-(4-methylpiperazin-1-yl)phenyl)amino)-5′,7′-dihydrospiro[pyrrolidine-3,6′-pyrrolo[2,3-d]pyrimidin]-2-one] | – | – | –
– | – | – | – | – | – | 0.0138 µM and 0.0102 µM | 0.0138 µM and 0.0102 µM | – | – | – | 0.069 µM | 0.069 µM | CN1CCN(c2ccc(Nc3ncc4c(n3)N(C3CCCCC3)C3(CCNC3=O)C4)cc2F)CC1 (stereo not drawn) [Compound C200, 7′-cyclohexyl-2′-((3-fluoro-4-(4-methylpiperazin-1-yl)phenyl)amino)-5′,7′-dihydrospiro[pyrrolidine-3,6′-pyrrolo[2,3-d]pyrimidin]-2-one] | – | – | –
– | – | – | – | – | – | 0.0393 µM | 0.0393 µM | – | – | – | 0.115 µM | 0.115 µM | CN1CCN(c2ccc(Nc3ncc4c(n3)N(C3CCCCC3)C3(CCNC3=O)C4)cn2)CC1 (stereo not drawn) [Compound C201, 7′-cyclohexyl-2′-((6-(4-methylpiperazin-1-yl)pyridin-3-yl)amino)-5′,7′-dihydrospiro[pyrrolidine-3,6′-pyrrolo[2,3-d]pyrimidin]-2-one] | – | – | –
– | – | – | – | – | – | 0.368 µM | 0.368 µM | – | – | – | 0.704 µM | 0.704 µM | CN1CCN(c2ccc(Nc3ncc4c(n3)N(C3CCCCC3)C3(CCNC3=O)C4)nc2)CC1 (stereo not drawn) [Compound C202, 7′-cyclohexyl-2′-((5-(4-methylpiperazin-1-yl)pyridin-2-yl)amino)-5′,7′-dihydrospiro[pyrrolidine-3,6′-pyrrolo[2,3-d]pyrimidin]-2-one] | – | – | –

Compound | IC50 ([1]; Table 3a) | IC50 ([1]; Table 3b) | IC50 ([3]; Table 3a) | IC50 ([3]; Table 3b) | IC50 ([4]; Table 3a) | IC50 ([4]; Table 3b) | IC50 [5, 7] | IC50 [5, 8] | IC50 [2, 9] | IC50 [6, 10] | IC50 [5, 11] | IC50 [6, 12] | IC50 [6, 13] | IC50 [2] | IC50 ([6]; CDK6 CyclinD3 IC50 (μM), Table 3a) | IC50 ([6]; CDK6 CyclinD3 IC50 (μM), Table 3b)
CN1CCN(c2ccc(Nc3ncc4c(n3)N(C3CCCC3)C3(CC(=O)NC3=O)C4)cc2)CC1 (single isomer, unassigned) [Compound C136, 7′-cyclopentyl-2′-((4-(4-methylpiperazin-1-yl)phenyl)amino)-5′,7′-dihydrospiro[pyrrolidine-3,6′-pyrrolo[2,3-d]pyrimidine]-2,5-dione] | 1540 nM | 1540 nM | 1270 nM | 1270 nM | 5740 nM | 5740 nM | 0.0257 µM | 0.0257 µM | – | – | – | – | – | 80.5 nM | – | –
CN1CCN(c2ccc(Nc3ncc4c(n3)N(C3CCCC3)C3(CC(=O)NC3=O)C4)cc2)CC1 (single isomer, unassigned) [Compound C137, 7′-cyclopentyl-2′-((4-(4-methylpiperazin-1-yl)phenyl)amino)-5′,7′-dihydrospiro[pyrrolidine-3,6′-pyrrolo[2,3-d]pyrimidine]-2,5-dione] | 3330 nM | 3330 nM | 1650 nM | 1650 nM | 585 nM | 585 nM | 0.202 µM | 0.202 µM | 367 nM | – | – | – | – | – | – | –
CN1CCN(c2ccc(Nc3ncc4c(n3)N(C3CCCC3)C3(CCNC3=O)C4)cc2F)CC1 (single isomer, unassigned) [Compound C197, 7′-cyclopentyl-2′-((3-fluoro-4-(4-methylpiperazin-1-yl)phenyl)amino)-5′,7′-dihydrospiro[pyrrolidine-3,6′-pyrrolo[2,3-d]pyrimidin]-2-one] | 2100 nM | 2100 nM | – | – | 22100 nM | 22100 nM | 0.0517 µM and 0.028 µM | 0.0517 µM and 0.028 µM | – | – | – | – | – | 46.6 nM | 0.258 µM | 0.258 µM
